In patent US20240016807A1, “COMBINATION THERAPY FOR THE TREATMENT OF A LIVER DISEASE” (INVENTIVA, priority 2020, published 2024):

Assays:
Assay type in all cases: in vivo, C57BL6/J mice
[1] = tested on: hepatic gene expression of IL-1b, MCP-1, Col1 alpha1 and TGF-beta; experiment: Hepatic gene expression by qPCR (inflammation and fibrosis genes) in HFCC/CDX diet mouse model; conditions: liver, vs vehicle, 2 weeks treatment
Method: (§1) It has been reported (Duparc T et al., Am J Physiol Gasterointest Liver Physiol, 2019, Vol. 317, n° 4, pages G508-G517) that mice fed with a high fat/high cholesterol/high cholic acid diet with 2% 2-hydroxypropyl beta-cyclodextrin in drinking water for 3 weeks rapidly develops liver complications such as steatosis, inflammation and fibrosis with concomitant increase in plasma ALT/AST levels. The benefit of a combination therapy comprising lanifibranor and firsocostat was assessed in this model. C57BL6/J mice were fed for 3 weeks with a 60% high fat/1.25% cholesterol/0.5% cholic acid diet with 2% 2-hydroxypropyl beta-cyclodextrin in drinking water (HFCC/CDX diet). After 1 week of diet, blood was collected (˜150 μL/ethylenediaminetetraacetic acid (EDTA)) in non-fasting conditions and plasma ALT and AST levels were measured. Mice were then randomized into 4 homogenous treatment groups (n=10 mice per group) according to their 1) ALT levels, 2) AST levels and 3) body weight. The four groups received then their treatment for the remaining 2 weeks on top of the HFCC/CDX diet as follows: • Group 1: vehicle 1+vehicle 2; • Group 2: lanifibranor+vehicle 2; • Group 3: vehicle 1+firsocostat; • Group 4: lanifibranor+firsocostat. All treatments were given QD per os. Vehicle 1 stands for lanifibranor's vehicle (i.e. methyl cellulose/poloxamer), vehicle 2 stands for firsocostat's vehicle (i.e. Tween®80/methylcellulose). Lanifibranor was given at 10 mg/kg for 2 weeks and firsocostat was given at 30 mg/kg for the first 6 days and then at 15 mg/kg for the last 8 days: due to the high loss of weight observed in the combination group, the dose of firsocostat was adapted to limit toxicity. At the end of the treatment period all the mice were weighted and 4-hour fasted prior to blood collection (maximal volume/EDTA). Plasma was isolated and stored at −80° C. Plasma leftover was used for evaluation of plasmatic triglycerides, cholesterols and free fatty acid. After blood collection, mice were sacrificed by cervical dislocation under isoflurane anaesthesia and exsanguinated with sterile saline. The liver was collected and weighted then liver samples were dissected for histology analysis (H&E, Sirius Red staining, % Sirius Red labelling and NAFLD Activity Score (NAS)), liver lipids assay, hepatic gene expression of IL-1b, MCP-1 for inflammation, Col1 alpha1 and TGF-beta for fibrosis were analysed by qPCR.

[2] = Body weight follow-up in HFCC/CDX diet mouse model; conditions: for body weight: during treatment, lanifibranor 10 mg/kg QD per os, firsocostat 30 mg/kg QD per os in first week
Method: It has been reported (Duparc T et al., Am J Physiol Gasterointest Liver Physiol, 2019, Vol. 317, n° 4, pages G508-G517) that mice fed with a high fat/high cholesterol/high cholic acid diet with 2% 2-hydroxypropyl beta-cyclodextrin in drinking water for 3 weeks rapidly develops liver complications such as steatosis, inflammation and fibrosis with concomitant increase in plasma ALT/AST levels. The benefit of a combination therapy comprising lanifibranor and firsocostat was assessed in this model.
(§2) C57BL6/J mice were fed for 3 weeks with a 60% high fat/1.25% cholesterol/0.5% cholic acid diet with 2% 2-hydroxypropyl beta-cyclodextrin in drinking water (HFCC/CDX diet). After 1 week of diet, blood was collected (˜150 μL/ethylenediaminetetraacetic acid (EDTA)) in non-fasting conditions and plasma ALT and AST levels were measured. Mice were then randomized into 4 homogenous treatment groups (n=10 mice per group) according to their 1) ALT levels, 2) AST levels and 3) body weight. The four groups received then their treatment for the remaining 2 weeks on top of the HFCC/CDX diet as follows: • Group 1: vehicle 1+vehicle 2; • Group 2: lanifibranor+vehicle 2; • Group 3: vehicle 1+firsocostat; • Group 4: lanifibranor+firsocostat.
All treatments were given QD per os. Vehicle 1 stands for lanifibranor's vehicle (i.e. methyl cellulose/poloxamer), vehicle 2 stands for firsocostat's vehicle (i.e.
Tween®80/methylcellulose). Lanifibranor was given at 10 mg/kg for 2 weeks and firsocostat was given at 30 mg/kg for the first 6 days and then at 15 mg/kg for the last 8 days: due to the high loss of weight observed in the combination group, the dose of firsocostat was adapted to limit toxicity. At the end of the treatment period all the mice were weighted and 4-hour fasted prior to blood collection (maximal volume/EDTA). Plasma was isolated and stored at −80° C. Plasma leftover was used for evaluation of plasmatic triglycerides, cholesterols and free fatty acid. After blood collection, mice were sacrificed by cervical dislocation under isoflurane anaesthesia and exsanguinated with sterile saline.

[3] = tested on: HFCC+CDX diet model (liver histology); experiment: Liver histology (steatosis, inflammation, fibrosis scoring, % Sirius Red) in HFCC/CDX diet mouse model; conditions: for histological fibrosis score: compared to the vehicle group (score of 1); for histological steatosis score / histological inflammation score: 3 being the maximum; for histological steatosis score: all vehicle animals scored 3; for histological inflammation score: all vehicle mice scored 3; for surface of fibrosis (collagen deposition within the liver): vehicle 0.14%; for total scoring including steatosis, inflammation and fibrosis scoring: vehicle 6.9
Method: as §1

[4] = tested on: HFCC+CDX diet model (liver lipids); experiment: Liver lipids assay in HFCC/CDX diet mouse model; conditions: 2 weeks treatment QD per os; lanifibranor 10 mg/kg, firsocostat 30 then 15 mg/kg
Method: as §1

[5] = tested on: epididymal white adipose tissue (EWAT); experiment: Epididymal white adipose tissue weight in HFCC/CDX diet mouse model; conditions: 2 weeks treatment QD per os; lanifibranor 10 mg/kg, firsocostat 30 then 15 mg/kg
Method: as §2, with “It has been reported (Duparc T et al., Am J Physiol Gasterointest Liver Physiol, 2019, Vol. 317, n° 4, pages G508-G517) that mice fed with a high fat/high cholesterol/high cholic acid diet with 2% 2-hydroxypropyl beta-cyclodextrin in drinking water for 3 weeks rapidly develops liver complications such as steatosis, inflammation and fibrosis with concomitant increase in plasma ALT/AST levels. The benefit of a combination therapy comprising lanifibranor and firsocostat was assessed in this model. C57BL6/J” for “C57BL6/J”, “lanifibranor+firsocostat. All treatments were given QD per os. […]” for “lanifibranor+firsocostat.”

Row | SMILES | hepatic IL-1beta expression [1] | hepatic MCP-1 expression [1] | hepatic TGF-beta1 expression [1] | hepatic collagen 1 alpha 1 expression [1] | body weight after firsocostat dose reduction ([2]; after firsocostat dose reduced from 30 mg/kg to 15 mg/kg) | body weight [2] | histological fibrosis score [3] | histological steatosis score [3] | histological inflammation score [3] | surface of fibrosis (collagen deposition within the liver) [3] | total scoring including steatosis, inflammation and fibrosis scoring [3] | hepatic fatty acids levels, change vs vehicle [4] | hepatic total cholesterol, change vs vehicle [4] | hepatic triglycerides, change vs vehicle [4] | epididymal white adipose tissue (EWAT) weight [5]
1 | COc1ccccc1[C@H](Cn1c(=O)n(C(C)(C)C(=O)O)c(=O)c2c(C)c(-c3ncco3)sc21)OC1CCOCC1 [firsocostat] | decreased both IL-1beta and MCP-1 expressions but only the decrease in MCP-1 expression reached significance | decreased both IL-1beta and MCP-1 expressions but only the decrease in MCP-1 expression reached significance | statistically decreased | statistically decreased | normalized their body weight | induced a body weight loss in the first week of treatment | no effect | score of 2 in 7 animals but had no effect in 2 animals | 1 animals had a score of 3, 7 animals had a score of 2 and 1 animal had a score of 1 | 0.10% | 5.1 | −16% | −9% | −14% | neither lanifibranor alone, firsocostat alone nor the combination of lanifibranor and firsocostat had an effect
2 | O=C(O)CCCc1cc2cc(Cl)ccc2n1S(=O)(=O)c1ccc2ncsc2c1 [lanifibranor, 5-Chloro-1-[(6-benzothiazolyl)sulfonyl]-1H-indole-2-butanoic acid] | statistically decreased | statistically decreased | statistically decreased | statistically decreased |  | minor body weight loss that was not significant | no effect | score of 2 for 8 animals and of 1 for 2 animals | 2 animals had a score of 3, 6 animals had a score of 2 and 2 animals had a score of 1 | 0.08% | 4.7 | no effect | −18% | −7% | neither lanifibranor alone, firsocostat alone nor the combination of lanifibranor and firsocostat had an effect
